The subject of one data set is Strept. pyogenes 77 A. The experiment in a line: Minimal inhibitory concentration, broth-dilution test. The data set is classed as cell-based. The note with it: Streptococcus pyogenes. An excerpt:
(§1) The antibacterial activity of 31668P and 31668U as Minimum Inhibitory Concentration values required to inhibit the growth of various bacteria are shown in Table 1.
(§2) Minimal inhibitory concentrations of the anitbiotics 31668P and
(§3) 31668U determined by the broth-dilution tests against selected
(§4) strains of bacteria (microgram per ml)

A further data set has as its system Staph. aureus 503. The description is as above. The note with it: Staphylococcus aureus. The data set is classed as cell-based.
Description: as §1, §2, §3, §4

In a further data set the test system is E. coli 1507 E. Described as above. The data set is classed as cell-based. The note with it: Escherichia coli, read-out: Minimal inhibitory concentration.
Description: as §1, §2, §3, §4

In data set [1] the test system is Enterobact. cloacae 1321 E. The description is as above. The data set is classed as cell-based.
Description: as §1, §2, §3, §4

Another data set deals with E. coli TEM. The data set is described as above. The data set is classed as cell-based. The note with it: Escherichia coli, read-out: Minimal inhibitory concentration.
Description: as §1, §2, §3, §4

The next data set relates to Strept. pyogenes 308 A. The data set is described as above. Type of data set: cell-based. The note with it: Streptococcus pyogenes.
Description: as §1, §2, §3, §4

The next data set deals with Klebs. spec. 1082E (K-1). The description is as above. Type of data set: cell-based.
Description: as §1, §2, §3, §4

A further data set has as its system E. coli 078. The data set is described as above. Type of data set: cell-based. The note with it: Escherichia coli.
Description: as §1, §2, §3, §4

A further data set relates to Saim. typhimurium. The data set is described as above. Type of data set: cell-based.
Description: as §1, §2, §3, §4

For a further data set, the system named is Enterobact. cloacae P 99. The description is as above. Type of data set: cell-based. The note with it: read-out: Minimal inhibitory concentration.
Description: as §1, §2, §3, §4

The subject of the next data set is Pseud. aeruginosa 1771. The description is as above. Type of data set: cell-based. The note with it: Pseudomonas aeruginosa.
Description: as §1, §2, §3, §4

For the next data set, the system named is E. coli DC 0. The data set is described as above. Type of data set: cell-based. The note with it: Escherichia coli, DC0.
Description: as §1, §2, §3, §4

Another data set concerns Klebs. spec. 1522 E. The data set is described as above. Type of data set: cell-based. The note with it: read-out: Minimal inhibitory concentration.
Description: as §1, §2, §3, §4

Another data set has as its system Staph. aureus SG 511. Described as above. Type of data set: cell-based. The note with it: Staphylococcus aureus, SG511.
Description: as §1, §2, §3, §4

Data set [2] has as its system Pseud. aeruginosa ATCC 9027. Described as above. The data set is classed as cell-based. The note with it: Pseudomonas aeruginosa, ATCC9027.
Description: as §1, §2, §3, §4

The next data set concerns Strept. faecium D. The description is as above. The data set is classed as cell-based. The note with it: Enterococcus faecium.
Description: as §1, §2, §3, §4

The test system of the next data set is E. coli DC 2. The description is as above. The note with it: Escherichia coli, DC2. The data set is classed as cell-based.
Description: as §1, §2, §3, §4

A further data set relates to Staph. aureus 285. The data set is described as above. The data set is classed as cell-based. The note with it: Staphylococcus aureus.
Description: as §1, §2, §3, §4

For the next data set, the system named is Pseud. aeruginosa 1771 M. Described as above. Type of data set: cell-based. The note with it: Pseudomonas aeruginosa.
Description: as §1, §2, §3, §4

A further data set deals with Pseud. aeruginosa 1592 E. The data set is described as above. The note with it: Pseudomonas aeruginosa. Type of data set: cell-based.
Description: as §1, §2, §3, §4

For data set [3], the system named is gram-positive and gram-negative bacteria. The experiment in a line: Antibacterial activity (general statement). Type of data set: cell-based. The note with it: in words.
The nature of data set [4]: Cytotoxic / cytostatic activity (general statement). The note with it: in words.

“Also recorded” adds a separate entry of the source. Where two headings read alike, the source gives them in different places.

On to `COc1c(C)c(O)c2c(c1O)C(CO)[N+]1=CC3CC4C(C1C2N1CCOC41)N3C` (centres unmarked) [Compound 31668P], for which the MIC against Strept. pyogenes 77 A was less than 0.002 µg/mL; with Staph. aureus 503, less than 0.002 µg/mL; in the data set with E. coli 1507 E (1507E), 0.195 µg/mL; in data set [1], 0.098 µg/mL; in the data set on E. coli TEM it was 0.195 µg/mL; in the data set with Strept. pyogenes 308 A it was less than 0.002 µg/mL. For the same compound, the MIC was 0.391 µg/mL against Klebs. spec. 1082E (K-1); 0.049 µg/mL against E. coli 078; 0.391 µg/mL in the data set with Saim. typhimurium; 0.195 µg/mL in the data set on Enterobact. cloacae P 99; 1.56 µg/mL with Pseud. aeruginosa 1771; 0.781 µg/mL in the data set with E. coli DC 0. For the same compound, the MIC with Klebs. spec. 1522 E (Klebs. spec. 1522 E) is 0.391 µg/mL; in the data set on Staph. aureus SG 511 it was less than 0.002 µg/mL; in data set [2], 0.781 µg/mL; against Strept. faecium D, 0.025 µg/mL; with E. coli DC 2 it was 0.195 µg/mL; in the data set on Staph. aureus 285, less than 0.002 µg/mL. The MIC against Pseud. aeruginosa 1771 M turned out to be 0.391 µg/mL; against Pseud. aeruginosa 1592 E it was 0.781 µg/mL. In addition, the “antibacterial / antibiotic activity” value in data set [3] is “active against a large number of both gram-positive and gram-negative bacteria; also recorded: have an antibiotic activity”. The “cytotoxic activity / cytostatic effect” value in data set [4] was “cytotoxic activity; also recorded: cytostatic effect”.
As to `COC1=C(C)C(=O)C2=C(C1=O)C(CO)[N+]1=CC3CC4C(C1C2N1CCOC41)N3C` (centres unmarked) [Compound 31668U], the MIC against Strept. pyogenes 77 A was less than 0.002 µg/mL; in the data set with Staph. aureus 503, less than 0.002 µg/mL; in the data set with E. coli 1507 E (E. coli 1507 E), 3.13 µg/mL; in [1] it was 0.195 µg/mL; with E. coli TEM, 1.56 µg/mL; in the data set with Strept. pyogenes 308 A it was less than 0.002 µg/mL. For the same compound, the MIC in the data set with Klebs. spec. 1082E (K-1) is 0.781 µg/mL; with E. coli 078, 0.195 µg/mL; with Saim. typhimurium it was 3.13 µg/mL; with Enterobact. cloacae P 99, 1.56 µg/mL; against Pseud. aeruginosa 1771, 12.5 µg/mL; against E. coli DC 0 it was 6.25 µg/mL. Besides, the MIC in the data set with Klebs. spec. 1522 E is 1.56 µg/mL; in the data set with Staph. aureus SG 511 it was less than 0.002 µg/mL; in data set [2], 6.25 µg/mL; against Strept. faecium D it was 0.195 µg/mL; in the data set with E. coli DC 2, 0.781 µg/mL; with Staph. aureus 285 it was less than 0.002 µg/mL. The MIC is 1.56 µg/mL against Pseud. aeruginosa 1771 M and 6.25 µg/mL in the data set on Pseud. aeruginosa 1592 E. Besides, the “antibacterial / antibiotic activity” value in data set [3] is “active against a large number of both gram-positive and gram-negative bacteria; also recorded: have an antibiotic activity”. Further, the “cytotoxic activity / cytostatic effect” value in data set [4] was “cytotoxic activity; also recorded: cytostatic effect”.

Source of the values: US5459141A, “Compounds 31668P and 31668U, a process for their production and their use” (Hoechst Aktiengesellschaft, priority 1992, dated 1995).
